Structures are written as SMILES.

Data on 60 molecules can be found in patent publication US8975235B2, “Lysophosphatidic acid receptor antagonists” (InterMune, Inc., priority 2011, dated 2015).

The target of this assay is Human LPA1 (Homo sapiens, UniProt Q92633). The experiment in a line: Beta-Arrestin based assay for human LPA1R antagonists (PathHunter). It counts as cell-based. Details: host or cells: CHO. The note with it: CHO cells stably expressing ProLink tagged human LPA1R; agonist LPA 0.5 micromolar. As to the method: Beta-Arrestin Based Assays for Human LPA1R Antagonists and Agonists
Sequence of Human LPA1 (Q92633 whole entry, the tested form may be a part): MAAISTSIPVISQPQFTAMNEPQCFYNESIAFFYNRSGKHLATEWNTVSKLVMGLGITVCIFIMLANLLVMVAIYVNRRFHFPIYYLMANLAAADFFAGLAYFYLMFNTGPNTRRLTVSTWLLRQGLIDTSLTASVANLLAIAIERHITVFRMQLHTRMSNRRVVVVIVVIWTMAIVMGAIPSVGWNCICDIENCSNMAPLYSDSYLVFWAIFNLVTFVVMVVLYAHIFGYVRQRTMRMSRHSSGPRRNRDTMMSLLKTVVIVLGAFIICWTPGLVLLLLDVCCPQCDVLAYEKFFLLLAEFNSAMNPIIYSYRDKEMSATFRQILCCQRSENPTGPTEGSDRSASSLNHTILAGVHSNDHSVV
A CHO cell line stably expressing the ProLink™ tagged human LPA1R was obtained from DiscoverX Inc, Fremont, Calif. In this system, β-Arrestin was fused to an N-terminal deletion mutant of β-galactosidase (termed the enzyme acceptor or EA), the human LPA1R was fused to a smaller (42 amino acids) weakly complementing fragment termed ProLink™. […] Cell handling and assays were performed according to protocols specified in the PathHunter® assays kits (DiscoverX, Fremont, Calif.). Assays were performed in quadruplicate in white 384 well plates. End point luminescence data were plotted and fit to a 4 parameter logistic function to obtain IC50 values. For antagonist assays, an […] concentration of agonist (LPA) equal to 0.5 micromolar was used.
A word on the EC50: it is the midpoint of the concentration-response curve. Read a low EC50 as higher potency in that assay. As to `C[C@@H](OC(=O)Nc1oncc1-c1ccc(-c2ccc(C3(C(=O)O)CC3)cc2)cc1)c1ccccc1` [Compound 206], the EC50 was less than 50 nM.
In the case of `Cc1nsc(-c2ccc(-c3ccc(C4(C(=O)O)CC4)cc3)cc2)c1NC(=O)OCc1ccc(F)cc1` [Compound 98], the EC50 lay in the range of 50 to 500 nM.
The same measure for `Cc1noc(-c2ccc3cc(C#CC4(C(=O)O)CC4)ccc3c2)c1NC(=O)O[C@H](C)c1ccccc1Cl` [Compound 141]: less than 50 nM; for `C[C@@H](OC(=O)Nc1c(-c2ccc(-c3ccc(C4(C(=O)O)CC4)cc3)cc2)oc2ccccc12)c1ccccc1Cl` [Compound 42]: less than 50 nM; for `Cc1nsc(-c2ccc(-c3ccc(C4(C(=O)O)CC4)cc3)cc2C#N)c1NC(=O)O[C@H](C)c1ccccc1` [Compound 189]: more than 500 nM.
The same measure for `Cc1nsc(-c2ccc(-c3ccc(C4(C(=O)O)CCC4)cc3)cc2)c1NC(=O)O[C@H](C)c1ccccc1` [Compound 127]: 50 to 500 nM; for `Cc1noc(-c2ccc(-c3ccc4c(c3)CCC4C(=O)O)cc2)c1NC(=O)O[C@H](C)c1ccccc1Cl` (single isomer, unassigned) [Compound 26]: less than 50 nM; for `Cc1nsc(C#Cc2ccc3cc(CC(=O)O)ccc3c2)c1NC(=O)OCc1ccccc1` [Compound 91]: more than 500 nM.
The same measure for `Cc1nsc(-c2ccc(-c3ccc(C4(C(=O)O)CC4)cc3)cc2)c1NC(=O)OCc1cccc(Cl)c1Cl` [Compound 101]: more than 500 nM; for `Cc1noc(-c2ccc(-c3ccc(C4(C(=O)O)CNC4)cc3)cc2)c1NC(=O)O[C@H](C)c1ccccc1Cl` [Compound 34]: more than 500 nM; for `Cc1noc(C#Cc2cc3sc(C(=O)O)cc3s2)c1NC(=O)O[C@H](C)c1ccccc1` [Compound 254]: 50 to 500 nM.
On to `C[C@@H](OC(=O)Nc1ncoc1-c1ccc(-c2ccc(C3(C(=O)O)CC3)cc2)cc1)c1ccccc1Cl` [Compound 144], for which the EC50 was less than 50 nM.
The same measure for `C[C@@H](OC(=O)Nc1c(Cl)nsc1-c1ccc(-c2ccc(C3(C(=O)O)CC3)cc2)cc1)c1ccccc1` [Compound 112]: less than 50 nM; for `O=C(Nc1cncn1-c1ccc(-c2ccc(C3(C(=O)O)CC3)cc2)cc1)OCc1ccccc1` [Compound 166]: more than 500 nM; for `C[C@@H](OC(=O)Nc1c(-c2ccc(-c3ccc(C4(C(=O)O)CC4)cc3)cc2)ncn1C)c1ccccc1Cl` [Compound 168]: less than 50 nM.
Molecule `Cc1nsc(-c2ccc3cc(C#CC4(C(=O)O)CC4)ccc3c2)c1NC(=O)O[C@H](C)c1ccccc1` [Compound 88] had an EC50 of 50 to 500 nM.
In turn, `C[C@@H](OC(=O)Nc1nonc1-c1ccc(-c2ccc(C3(C(=O)O)CC3)cc2)cc1)c1ccccc1` [Compound 176] had an EC50 of less than 50 nM.
The same measure for `CCNC(=O)N1CC(C(=O)O)(c2ccc(-c3ccc(-c4onc(C)c4NC(=O)O[C@H](C)c4ccccc4Cl)cc3)cc2)C1` [Compound 40]: 50 to 500 nM; for `Cc1nsc(-c2ccc(-c3ccc(C4(C(=O)O)CC4)cc3)cc2)c1NC(=O)OCc1cccc(F)c1` [Compound 96]: less than 50 nM.
The same measure for `Cc1nsc(-c2ccc(-c3ccc(CC(=O)O)c(F)c3)cc2)c1NC(=O)O[C@H](C)c1ccccc1Cl` [Compound 196]: 50 to 500 nM; for `C[C@@H](OC(=O)Nc1ncsc1-c1ccc(-c2ccc(C3(C(=O)O)CC3)cc2)cc1)c1ccccc1Cl` [Compound 110]: 50 to 500 nM; for `Cc1nsc(-c2ccc(-c3ccc(C4(C(=O)O)CC4)cc3)cc2)c1NC(=O)OC1(c2ccccc2)CC1` [Compound 244]: more than 500 nM.
The same measure for `Cc1nsc(-c2ccc(-c3ccc(C4(C(=O)O)CC4)c(F)c3)cc2)c1NC(=O)O[C@H](C)c1ccccc1Cl` [Compound 197]: less than 50 nM; for `Cc1nsc(C#Cc2ccc3cc(CC(=O)O)ccc3c2)c1NC(=O)O[C@H](C)c1ccccc1Cl` [Compound 94]: 50 to 500 nM; for `Cc1cc(-c2snc(C)c2NC(=O)O[C@H](C)c2ccccc2Cl)c(F)cc1-c1ccc(C2(C(=O)O)CC2)cc1` [Compound 121]: less than 50 nM.
For the molecule `C[C@@H](OC(=O)Nc1nsnc1-c1ccc(-c2ccc(C3(C(=O)O)CC3)cc2)cc1)c1ccccc1` [Compound 211], the EC50 was in the range of 50 to 500 nM.
The same measure for `O=C(Nc1c(-c2ccc(-c3ccc(C4(C(=O)O)CC4)cc3)cc2)oc2cnccc12)OCc1ccccc1` [Compound 151]: 50 to 500 nM; for `C[C@@H](OC(=O)Nc1scnc1-c1ccc(-c2ccc(C3(C(=O)O)CC3)cc2)cc1)c1ccccc1` [Compound 106]: 50 to 500 nM.
The same measure for `O=C(O)Cc1ccc(N2CCN(C(=O)CCNC(=O)COc3ccccc3)CC2)cc1` [Compound 265]: more than 500 nM; for `Cc1nsc(-c2ccc(-c3ccc(C4(C(=O)O)CC4)cc3)cc2)c1NC(=O)OCc1cccc(F)c1Cl` [Compound 103]: 50 to 500 nM.
On to `CCC(=O)Nc1ccnc(-c2ccc(-c3ccc(CC(=O)O)cc3)cc2)c1` [reference compound], for which the EC50 is more than 500 nM.
The same measure for `C[C@@H](NC(=O)OCc1ccccc1)C(=O)N1CCN(c2ccc(CC(=O)O)cc2)CC1` [Compound 273]: more than 500 nM; for `Cc1noc(-c2ccc(-c3ccc(CC(=O)O)cc3)cc2)c1NS(=O)(=O)Cc1ccccc1` [Compound 17]: more than 500 nM; for `Cn1ncc(-c2ccc(-c3ccc(C4(C(=O)O)CC4)cc3)cc2)c1NC(=O)OCc1ccccc1` [Compound 172]: less than 50 nM.
The same measure for `Cc1noc(-c2ccc(-c3ccc4c(c3)CCCC4C(=O)O)cc2)c1NC(=O)O[C@H](C)c1ccccc1Cl` (stereo partly drawn) [Compound 24]: 50 to 500 nM; for `Cc1noc(-c2ccc3c(c2)CCc2cc(C4(C(=O)O)CC4)ccc2-3)c1NC(=O)O[C@H](C)c1ccccc1` [Compound 247]: less than 50 nM; for `Cc1nsc(-c2ccc(-c3ccc(C4(C(=O)O)CCCC4)cc3)cc2)c1NC(=O)O[C@H](C)c1ccccc1` [Compound 125]: 50 to 500 nM.
The same measure for `Cc1cc(-c2ccc(C3(C(=O)O)CC3)cc2)c(F)cc1-c1snc(C)c1NC(=O)O[C@H](C)c1ccccc1Cl` [Compound 124]: less than 50 nM.
`C[C@@H](OC(=O)Nc1sc2ccccc2c1-c1ccc(-c2ccc(C3(C(=O)O)CC3)cc2)cc1)c1ccccc1` [Compound 207] returned an EC50 of more than 500 nM.
The same measure for `CC(OC(=O)Nc1n[nH]nc1-c1ccc(-c2ccc(C3(C(=O)O)CC3)cc2)cc1)c1ccccc1` (stereo not drawn) [Compound 223]: more than 500 nM; for `Cc1nnn(-c2ccc(-c3ccc(C4(C(=O)O)CC4)cc3)cc2)c1NC(=O)OCc1ccccc1` [Compound 157]: 50 to 500 nM.
The same measure for `Cc1ccc2oc(-c3ccc(-c4ccc(C5(C(=O)O)CC5)cc4)cc3)c(NC(=O)O[C@H](C)c3ccccc3Cl)c2c1` [Compound 53]: more than 500 nM.
The same measure for `Cc1nsc(-c2ccc(-c3ccc4c(ccn4CC(=O)O)c3)cc2)c1NC(=O)O[C@H](C)c1ccccc1Cl` [Compound 104]: more than 500 nM.
As for `O=C(O)Cc1ccc(C2CCN(C(=O)CCNC(=O)OCc3ccccc3)CC2)cc1` [Compound 256], the EC50 is more than 500 nM.
The same measure for `Cc1nsc(-c2ccc(-c3ccc(C4(C(=O)O)CC4)cc3)cc2)c1NC(=O)O[C@H](C)c1cccc(Cl)c1` [Compound 198]: less than 50 nM.
As for `Cc1nsc(-c2ccc(-c3ccc(C4(C(=O)O)CC4)cc3)cc2)c1NC(=O)O[C@H](C)c1cccc(F)c1` [Compound 194], the EC50 is less than 50 nM.
The same measure for `Cc1nsc(-c2ccc(-c3ccc(CC(=O)O)c(Cl)c3)cc2)c1NC(=O)O[C@H](C)c1ccccc1Cl` [Compound 192]: 50 to 500 nM; for `Cc1nsc(-c2ccc(-c3ccc(C4(C(=O)O)CC4)cc3)cc2)c1NC(=O)O[C@H](C)C1=C(Cl)CCCC1` [Compound 218]: less than 50 nM.
The same measure for `C[C@@H](OC(=O)Nc1c(-c2cc(Cl)c(-c3ccc(C4(C(=O)O)CC4)cc3)cc2F)cnn1C)c1ccccc1Cl` [Compound 202]: less than 50 nM; for `Cn1cnc(-c2ccc(-c3ccc(C4(C(=O)O)CC4)cc3)cc2)c1NC(=O)OCc1ccccc1` [Compound 167]: more than 500 nM.
The same measure for `C[C@@H](OC(=O)Nc1cnsc1-c1ccc(-c2ccc(C3(C(=O)O)CC3)cc2)cc1)c1ccccc1Cl` [Compound 210]: 50 to 500 nM; for `Cc1nsc(-c2ccc(-c3ccc(C4(C(=O)O)CC4)cc3)cc2)c1NC(=O)OC(C)c1ccccc1` (stereo not drawn) [Compound 253]: less than 50 nM; for `Cc1nsc(-c2cc(Cl)c(-c3ccc(C4(C(=O)O)CC4)cc3)cc2F)c1NC(=O)O[C@H](C)c1ccccc1Cl` [Compound 120]: less than 50 nM.
As for `C[C@@H](OC(=O)Nc1nn(C)nc1-c1ccc(-c2ccc(C3(C(=O)O)CC3)cc2)cc1)c1ccccc1` [Compound 225], the EC50 is more than 500 nM.
The same measure for `Cc1nsc(-c2ccc(-c3ccc(C4(C(=O)O)CC4)cc3)cc2)c1NC(=O)O[C@H](C)c1ccccn1` [Compound 84]: 50 to 500 nM.
`Cc1nc(-c2ccc(-c3ccc(C4(C(=O)O)CC4)cc3)cc2)c(NC(=O)O[C@H](C)c2ccccc2)o1` [Compound 154] had an EC50 of 50 to 500 nM.
The same measure for `C[C@@H](OC(=O)Nc1snnc1-c1ccc(-c2ccc(C3(C(=O)O)CC3)cc2)cc1)c1ccccc1Cl` [Compound 175]: 50 to 500 nM; for `Cc1nsc(-c2ccc(-c3ccc(C4(C(=O)O)CC4)cc3)cc2)c1NC(=O)OCc1ccccn1` [Compound 72]: more than 500 nM; for `O=C(Nc1nncn1-c1ccc(-c2ccc(C3(C(=O)O)CC3)cc2)cc1)OCc1ccccc1` [Compound 160]: more than 500 nM.
The same measure for `CN(CC(=O)N1CCC(c2ccc(CC(=O)O)cc2)CC1)C(=O)OCc1ccccc1` [Compound 258]: more than 500 nM.
